One test has as its target T1, human CRFR2 (Homo sapiens, UniProt Q13324).
T1 construct: expressed in transfected cells
T1 sequence (Q13324 1-411): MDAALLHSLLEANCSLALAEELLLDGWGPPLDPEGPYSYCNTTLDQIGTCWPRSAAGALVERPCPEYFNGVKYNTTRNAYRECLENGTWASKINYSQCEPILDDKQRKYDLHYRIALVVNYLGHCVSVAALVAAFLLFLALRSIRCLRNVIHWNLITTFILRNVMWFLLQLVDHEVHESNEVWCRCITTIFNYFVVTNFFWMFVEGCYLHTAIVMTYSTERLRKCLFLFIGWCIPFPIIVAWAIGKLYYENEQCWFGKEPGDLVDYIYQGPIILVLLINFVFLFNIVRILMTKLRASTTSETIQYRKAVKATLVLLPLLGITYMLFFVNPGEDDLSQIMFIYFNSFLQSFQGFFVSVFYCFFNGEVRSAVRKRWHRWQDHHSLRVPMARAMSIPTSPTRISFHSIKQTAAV
As to the kind of experiment: Competitive binding assay, CHO cells stably expressing human CRFR2, displacement of [125I-Tyr0]Ucn.
Settings: not given
(Displacement assays read how much labelled ligand stays bound in the presence of the test substance.)
Take “(cyclo 31-34)[Ac-Pro^4, D-Phe^12, Nle^18,21, Glu^31, Lys^34]-sucker urotensin(4-41) [Example 3 B]”: the “binding to CRFR2 (in words)” value is “only very weakly”.

Regarding “(cyclo 31-34)[Ac-Pro^4, D-Phe^12, Nle^21,37,38, Glu^31, Lys^34]-fish CRF(4-41) [Example 3 D]”, the “binding to CRFR2 (in words)” value is reported as “only very weakly”.

Take “(cyclo 31-34)[Ac-Pro^4, D-Phe^12, Nle^21,38, CML^27,36, Glu^31, D-His^32, Lys^34]-r/hCRF(4-41) [Example 6 C D-His^32 analog]”: the “binding to CRFR2 (in words)” value is listed as “only very weakly”.

Regarding “(cyclo 31-34)[Ac-Pro^4, D-Phe^12, Nle^21,38, CML^27,36, Glu^31, Lys^34]-r/hCRF(4-41) [Example 6 C]”, the “binding to CRFR2 (in words)” value was “only very weakly”.

With “(cyclo 31-34)[Ac-Pro^4, D-Phe^12, Nle^21,38, CML^27,37, Glu^31, Lys^34]-r/hCRF(4-41) [Example 6 D]”, the “binding to CRFR2 (in words)” value is on record as “only very weakly”.

Consider “(cyclo 31-34)[Ac-Pro^4, D-Phe^12, Nle^21,38, CML^27,40, Glu^31, Aib^33, Lys^34]-r/hCRF(4-41) [Example 6 G]”, for which the “binding to CRFR2 (in words)” value is “bind only weakly”.

On to “(cyclo 31-34)[Ac-Pro^4, D-Phe^12, Nle^21,38, CML^27,40, Glu^31, D-Ala^33, Lys^34]-r/hCRF(4-41) [Example 6 I]”, for which the “binding to CRFR2 (in words)” value is on record as “bind only weakly”.

In the case of “(cyclo 31-34)[Ac-Pro^4, D-Phe^12, Nle^21,38, CML^27,40, Glu^31, D-Ser^33, Lys^34]-r/hCRF(4-41) [Example 6 H]”, the “binding to CRFR2 (in words)” value is recorded as “bind only weakly”.

For the substance “(cyclo 31-34)[Ac-Pro^4, D-Phe^12, Nle^21,38, CML^27,40, Glu^31, Lys^34]-r/hCRF(4-41) [Example 6 E]”, the “binding to CRFR2 (in words)” value is “bind only weakly”.

As for “(cyclo 31-34)[Ac-Pro^4, D-Phe^12, Nle^21,38, CML^27,41, Glu^31, Lys^34]-r/hCRF(4-41) [Example 6 F]”, the “binding to CRFR2 (in words)” value was “only very weakly”.

For “(cyclo 31-34)[Ac-Pro^4, D-Phe^12, Nle^21,38, CML^27, Glu^31, D-His^32, Lys^34]-r/hCRF(4-41) [Example 5 F]”, the “binding to CRFR2 (in words)” value was “only very weakly”.

Test system in a further test: not listed separately
As to the kind of experiment: In vivo lowering of blood pressure on peripheral administration. Particulars: administered peripherally.
Protocol: In vivo testing is carried out using the general procedure set forth in C.
Turning to “(cyclo 31-34)[Ac-Pro^4, D-Phe^12, Nle^18,21, Glu^31, Lys^34]-sucker urotensin(4-41) [Example 3 B]”, the “lowering of blood pressure” value is “very significant lowering of blood pressure”.

For “(cyclo 31-34)[Ac-Pro^4, D-Phe^12, Nle^21,37,38, Glu^31, Lys^34]-fish CRF(4-41) [Example 3 D]”, the “lowering of blood pressure” value is reported as “very significant lowering of blood pressure”.

With “(cyclo 31-34)[Ac-Pro^4, D-Phe^12, Nle^21,38, CML^27,36, Glu^31, D-His^32, Lys^34]-r/hCRF(4-41) [Example 6 C D-His^32 analog]”, the “lowering of blood pressure” value was “very significant lowering of blood pressure”.

For “(cyclo 31-34)[Ac-Pro^4, D-Phe^12, Nle^21,38, CML^27,36, Glu^31, Lys^34]-r/hCRF(4-41) [Example 6 C]”, the “lowering of blood pressure” value is recorded as “very significant lowering of blood pressure”.

“(cyclo 31-34)[Ac-Pro^4, D-Phe^12, Nle^21,38, CML^27,37, Glu^31, Lys^34]-r/hCRF(4-41) [Example 6 D]”: the “lowering of blood pressure” value was “very significant lowering of blood pressure”.

On to “(cyclo 31-34)[Ac-Pro^4, D-Phe^12, Nle^21,38, CML^27,40, Glu^31, Aib^33, Lys^34]-r/hCRF(4-41) [Example 6 G]”, for which the “lowering of blood pressure” value is recorded as “very significant lowering of blood pressure”.

With “(cyclo 31-34)[Ac-Pro^4, D-Phe^12, Nle^21,38, CML^27,40, Glu^31, D-Ala^33, Lys^34]-r/hCRF(4-41) [Example 6 I]”, the “lowering of blood pressure” value is recorded as “very significant lowering of blood pressure”.

For the substance “(cyclo 31-34)[Ac-Pro^4, D-Phe^12, Nle^21,38, CML^27,40, Glu^31, D-Ser^33, Lys^34]-r/hCRF(4-41) [Example 6 H]”, the “lowering of blood pressure” value was “very significant lowering of blood pressure”.

Consider “(cyclo 31-34)[Ac-Pro^4, D-Phe^12, Nle^21,38, CML^27,40, Glu^31, Lys^34]-r/hCRF(4-41) [Example 6 E]”, for which the “lowering of blood pressure” value is on record as “very significant lowering of blood pressure”.

Take “(cyclo 31-34)[Ac-Pro^4, D-Phe^12, Nle^21,38, CML^27,41, Glu^31, Lys^34]-r/hCRF(4-41) [Example 6 F]”: the “lowering of blood pressure” value is “very significant lowering of blood pressure”.

“(cyclo 31-34)[Ac-Pro^4, D-Phe^12, Nle^21,38, CML^27, Glu^31, D-His^32, Lys^34]-r/hCRF(4-41) [Example 5 F]”: the “lowering of blood pressure” value is recorded as “very significant lowering of blood pressure”.

For another test, the system named is cultured rat pituitary cells. The test can be described thus: In vitro stimulation of ACTH and β-endorphin secretion by cultured rat pituitary cells. It is filed as cell-based.
Settings: not given
As for “(cyclo 31-34)[Ac-Pro^4, D-Phe^12, Nle^18,21, Glu^31, Lys^34]-sucker urotensin(4-41) [Example 3 B]”, the “stimulation of the secretion of ACTH and β-END-LI” value (“stimulation” for short) is “stimulates”.

“(cyclo 31-34)[Ac-Pro^4, D-Phe^12, Nle^21,37,38, Glu^31, Lys^34]-fish CRF(4-41) [Example 3 D]”: the “stimulation” value is “stimulates”.

Consider “(cyclo 31-34)[Ac-Pro^4, D-Phe^12, Nle^21,38, CML^27,36, Glu^31, D-His^32, Lys^34]-r/hCRF(4-41) [Example 6 C D-His^32 analog]”, for which the “stimulation” value was “stimulates”.

As to “(cyclo 31-34)[Ac-Pro^4, D-Phe^12, Nle^21,38, CML^27,36, Glu^31, Lys^34]-r/hCRF(4-41) [Example 6 C]”, the “stimulation” value is given as “stimulates”.

Regarding “(cyclo 31-34)[Ac-Pro^4, D-Phe^12, Nle^21,38, CML^27,37, Glu^31, Lys^34]-r/hCRF(4-41) [Example 6 D]”, the “stimulation” value is on record as “stimulates”.

For “(cyclo 31-34)[Ac-Pro^4, D-Phe^12, Nle^21,38, CML^27,40, Glu^31, Aib^33, Lys^34]-r/hCRF(4-41) [Example 6 G]”, the “stimulation” value is given as “stimulates”.

Regarding “(cyclo 31-34)[Ac-Pro^4, D-Phe^12, Nle^21,38, CML^27,40, Glu^31, D-Ala^33, Lys^34]-r/hCRF(4-41) [Example 6 I]”, the “stimulation” value was “stimulates”.

Turning to “(cyclo 31-34)[Ac-Pro^4, D-Phe^12, Nle^21,38, CML^27,40, Glu^31, D-Ser^33, Lys^34]-r/hCRF(4-41) [Example 6 H]”, the “stimulation” value is given as “stimulates”.

“(cyclo 31-34)[Ac-Pro^4, D-Phe^12, Nle^21,38, CML^27,40, Glu^31, Lys^34]-r/hCRF(4-41) [Example 6 E]”: the “stimulation” value is “stimulates”.

As to “(cyclo 31-34)[Ac-Pro^4, D-Phe^12, Nle^21,38, CML^27,41, Glu^31, Lys^34]-r/hCRF(4-41) [Example 6 F]”, the “stimulation” value is on record as “stimulates”.

Consider “(cyclo 31-34)[Ac-Pro^4, D-Phe^12, Nle^21,38, CML^27, Glu^31, D-His^32, Lys^34]-r/hCRF(4-41) [Example 5 F]”, for which the “stimulation” value is reported as “stimulates”.

The next test deals with T2, human CRFR1 (Homo sapiens, UniProt P34998).
T2 construct: expressed in transfected cells
T2 sequence (P34998 24-415): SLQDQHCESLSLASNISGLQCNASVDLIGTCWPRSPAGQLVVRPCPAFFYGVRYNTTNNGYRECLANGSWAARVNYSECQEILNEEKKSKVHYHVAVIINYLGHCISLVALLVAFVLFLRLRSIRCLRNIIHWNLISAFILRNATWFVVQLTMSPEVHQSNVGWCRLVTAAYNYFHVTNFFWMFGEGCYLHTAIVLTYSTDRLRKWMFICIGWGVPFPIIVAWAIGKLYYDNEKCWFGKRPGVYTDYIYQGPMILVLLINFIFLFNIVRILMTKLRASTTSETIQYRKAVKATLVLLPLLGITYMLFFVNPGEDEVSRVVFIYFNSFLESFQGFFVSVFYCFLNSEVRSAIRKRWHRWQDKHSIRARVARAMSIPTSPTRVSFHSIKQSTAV
The test can be described thus: Competitive binding assay, CHO cells stably expressing human CRFR1, displacement of 125I-(Nle21,Tyr32) ovine CRF.
Settings: not given
Turning to “(cyclo 31-34)[Ac-Pro^4, D-Phe^12, Nle^18,21, Glu^31, Lys^34]-sucker urotensin(4-41) [Example 3 B]”, the “binding to CRFR1 (in words)” value is on record as “binds strongly”.

On to “(cyclo 31-34)[Ac-Pro^4, D-Phe^12, Nle^21,37,38, Glu^31, Lys^34]-fish CRF(4-41) [Example 3 D]”, for which the “binding to CRFR1 (in words)” value was “binds strongly”.

For “(cyclo 31-34)[Ac-Pro^4, D-Phe^12, Nle^21,38, CML^27,36, Glu^31, D-His^32, Lys^34]-r/hCRF(4-41) [Example 6 C D-His^32 analog]”, the “binding to CRFR1 (in words)” value is given as “binds strongly”.

Take “(cyclo 31-34)[Ac-Pro^4, D-Phe^12, Nle^21,38, CML^27,36, Glu^31, Lys^34]-r/hCRF(4-41) [Example 6 C]”: the “binding to CRFR1 (in words)” value was “binds strongly”.

“(cyclo 31-34)[Ac-Pro^4, D-Phe^12, Nle^21,38, CML^27,37, Glu^31, Lys^34]-r/hCRF(4-41) [Example 6 D]”: the “binding to CRFR1 (in words)” value is reported as “binds strongly”.

With “(cyclo 31-34)[Ac-Pro^4, D-Phe^12, Nle^21,38, CML^27,40, Glu^31, Aib^33, Lys^34]-r/hCRF(4-41) [Example 6 G]”, the “binding to CRFR1 (in words)” value is listed as “high affinity”.

With “(cyclo 31-34)[Ac-Pro^4, D-Phe^12, Nle^21,38, CML^27,40, Glu^31, D-Ala^33, Lys^34]-r/hCRF(4-41) [Example 6 I]”, the “binding to CRFR1 (in words)” value was “high affinity”.

Consider “(cyclo 31-34)[Ac-Pro^4, D-Phe^12, Nle^21,38, CML^27,40, Glu^31, Lys^34]-r/hCRF(4-41) [Example 6 E]”, for which the “binding to CRFR1 (in words)” value is given as “high affinity”.

Consider “(cyclo 31-34)[Ac-Pro^4, D-Phe^12, Nle^21,38, CML^27,41, Glu^31, Lys^34]-r/hCRF(4-41) [Example 6 F]”, for which the “binding to CRFR1 (in words)” value is listed as “binds strongly”.

For the substance “(cyclo 31-34)[Ac-Pro^4, D-Phe^12, Nle^21,38, CML^27, Glu^31, D-His^32, Lys^34]-r/hCRF(4-41) [Example 5 F]”, the “binding to CRFR1 (in words)” value is “binds strongly”.

The record behind these values is patent publication US7498300B2, “CRFR1 selective ligands” (The Salk Institute for Biological Studies, priority 2001, dated 2009).
